The values below come from patent US20250340574A1, “MODULATORS OF CYSTIC FIBROSIS TRANSMEMBRANE CONDUCTANCE REGULATOR” (Vertex Pharmaceuticals Incorporated, priority 2022, published 2025).

SMILES strings stand for the structures.

What all share (assay type): cell-based
Experiment [1] concerns the target T1, CFTR (F508del/MF-HBE cells) (Homo sapiens, UniProt P13569, DEL508-508).
T1 construct: human bronchial epithelial (HBE) cells derived from CF subjects heterozygous for F508del and a minimal function CFTR mutation (F508del/MF-HBE); endogenous in cells; host or cells: Primary human bronchial epithelial cells from CF subjects (F508del/MF genotype), differentiated at an air-liquid interface
Briefly: Ussing chamber assay of CFTR-mediated short-circuit currents, Assay B (0.00001 μM to 25 μM, 12 concentrations). To be noted: with 33 nM potentiator and 18 μM Tezacaftor, 20% human serum; for Emax: read-out: B Max activity (%). The method, then:
(§1) Ussing chamber experiments were performed using human bronchial epithelial (HBE) cells derived from CF subjects heterozygous for F508del and a minimal function CFTR mutation (F508del/MF-HBE) and cultured as previously described (Neuberger T, Burton B, Clark H, Van Goor F Methods Mol Biol 2011:741:39-54). After four days the apical media was removed, and the cells were grown at an air liquid interface for >14 days prior to use.
(§2) To isolate the CFTR-mediated short-circuit (ISC) current, F508del/MF-HBE grown on Costar® Snapwell™ cell culture inserts were mounted in an Ussing chamber and the transepithelial ISC was measured under voltage-clamp recording conditions (Vhold=0 mV) at 37° C. The basolateral solution contained (in mM) 145 NaCl, 0.83 K2HPO4, 3.3 KH2PO4, 1.2 MgCl2, 1.2 CaCl2, 10 Glucose, 10 HEPES (pH adjusted to 7.4 with NaOH) and the apical solution contained (in mM) 145 NaGluconate, 1.2 MgCl2, 1.2 CaCl2, 10 glucose, 10 HEPES (pH adjusted to 7.4 with NaOH) and 30 μM amiloride to block the epithelial sodium channel. Forskolin (20 μM) was added to the apical surface to activate CFTR, followed by apical addition of a CFTR inhibitor cocktail consisting of BPO, GlyH-101, and CFTR inhibitor 172 (each at 20 μM final assay concentration) to specifically isolate CFTR currents. The CFTR-mediated ISC (μA/cm^2) for each condition was determined from the peak forskolin response to the steady-state current following inhibition.
(§3) The activity of the CFTR corrector compounds on the CFTR-mediated ISC was determined in Ussing chamber studies as described above. The F508del/MF-HBE cell cultures were either incubated with the corrector compounds at a range of concentrations in combination with 33 nM (6R,12R)-17-amino-12-methyl-6,15-bis(trifluoromethyl)-13,19-dioxa-3,4,18-triazatricyclo[12.3.1.12,5]nonadeca-1(18),2,4,14,16-pentaen-6-ol and 18 μM Tezacaftor or were incubated with the corrector compounds at a single fixed concentration of 1 μM in combination with 44 nM (6R,12R)-17-amino-12-methyl-6,15-bis(trifluoromethyl)-13,19-dioxa-3,4,18-triazatricyclo[12.3.1.12,5]nonadeca-1(18),2,4,14,16-pentaen-6-ol and 18 μM Tezacaftor for 18-24 hours at 37° C. and in the presence of 20% human serum. The concentration of corrector compounds with 44 nM or 33 nM (6R,12R)-17-amino-12-methyl-6,15-bis(trifluoromethyl)-13,19-dioxa-3,4,18-triazatricyclo[12.3.1.12,5]nonadeca-1(18),2,4,14,16-pentaen-6-ol and 18 μM Tezacaftor during the 18-24 hours incubations was kept constant throughout the Ussing chamber measurement of the CFTR-mediated ISC to ensure compounds were present throughout the entire experiment. The efficacy and potency of the putative F508del correctors was compared to that of the known Vertex corrector, (14S)-8-[3-(2-{Dispiro[2.0.2.1]heptan-7-yl}ethoxy)-1H-pyrazol-1-yl]-12,12-dimethyl-2λ^6-thia-3,9,11,18,23-pentaazatetracyclo[17.3.1.111,14.05,10]tetracosa-1(22),5,7,9,19(23),20-hexaene-2,2,4-trione, in combination with 18 μM Tezacaftor and 1 μM Ivacaftor.
(§4) • Assay A: 0.1 μM to 25 μM, 6 concentrations • Assay B: 0.00001 μM to 25 μM, 12 concentrations • Assay C: 0.026 μM to 25 μM, 6 concentrations • Assay D: Activity at single concentration of 1 μM

The target of experiment [2] is T1, CFTR (F508del/MF-HBE cells). As to the kind of experiment: Ussing chamber assay of CFTR-mediated short-circuit currents, Assay C (0.026 μM to 25 μM, 6 concentrations). To be noted: with 33 nM potentiator and 18 μM Tezacaftor, 20% human serum; for Emax: read-out: C Max activity (%). Summed up:
(§5)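 Short-circuit current was recorded at 37 °C under voltage clamp (0 mV) with amiloride 30 μM apically, forskolin 20 μM activation, then BPO/GlyH-101/inh-172 (20 μM each) to isolate CFTR current. Before recording, corrector exposure lasted 18–24 h with 18 μM tezacaftor, 20% human serum, and 33 nM (dose–response) or 44 nM (1 μM fixed) potentiator, maintained throughout.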

For experiment [3] the target is unchanged. Briefly: Ussing chamber assay of CFTR-mediated short-circuit currents, Assay A (0.1 μM to 25 μM, 6 concentrations). To be noted: with 33 nM potentiator and 18 μM Tezacaftor, 20% human serum; for Emax: 18-24 hours, read-out: A Max activity (%). As to the method:
as §1, §2, §3, §4

The target is the same in experiment [4]. As to the kind of experiment: Ussing chamber assay of CFTR-mediated short-circuit currents, Assay D (single concentration of 1 μM). To be noted: with 44 nM potentiator and 18 μM Tezacaftor, 18-24 hours, 20% human serum. Summed up: as §5

T1 sequence (P13569 with tags, fused parts or gaps DEL508-508): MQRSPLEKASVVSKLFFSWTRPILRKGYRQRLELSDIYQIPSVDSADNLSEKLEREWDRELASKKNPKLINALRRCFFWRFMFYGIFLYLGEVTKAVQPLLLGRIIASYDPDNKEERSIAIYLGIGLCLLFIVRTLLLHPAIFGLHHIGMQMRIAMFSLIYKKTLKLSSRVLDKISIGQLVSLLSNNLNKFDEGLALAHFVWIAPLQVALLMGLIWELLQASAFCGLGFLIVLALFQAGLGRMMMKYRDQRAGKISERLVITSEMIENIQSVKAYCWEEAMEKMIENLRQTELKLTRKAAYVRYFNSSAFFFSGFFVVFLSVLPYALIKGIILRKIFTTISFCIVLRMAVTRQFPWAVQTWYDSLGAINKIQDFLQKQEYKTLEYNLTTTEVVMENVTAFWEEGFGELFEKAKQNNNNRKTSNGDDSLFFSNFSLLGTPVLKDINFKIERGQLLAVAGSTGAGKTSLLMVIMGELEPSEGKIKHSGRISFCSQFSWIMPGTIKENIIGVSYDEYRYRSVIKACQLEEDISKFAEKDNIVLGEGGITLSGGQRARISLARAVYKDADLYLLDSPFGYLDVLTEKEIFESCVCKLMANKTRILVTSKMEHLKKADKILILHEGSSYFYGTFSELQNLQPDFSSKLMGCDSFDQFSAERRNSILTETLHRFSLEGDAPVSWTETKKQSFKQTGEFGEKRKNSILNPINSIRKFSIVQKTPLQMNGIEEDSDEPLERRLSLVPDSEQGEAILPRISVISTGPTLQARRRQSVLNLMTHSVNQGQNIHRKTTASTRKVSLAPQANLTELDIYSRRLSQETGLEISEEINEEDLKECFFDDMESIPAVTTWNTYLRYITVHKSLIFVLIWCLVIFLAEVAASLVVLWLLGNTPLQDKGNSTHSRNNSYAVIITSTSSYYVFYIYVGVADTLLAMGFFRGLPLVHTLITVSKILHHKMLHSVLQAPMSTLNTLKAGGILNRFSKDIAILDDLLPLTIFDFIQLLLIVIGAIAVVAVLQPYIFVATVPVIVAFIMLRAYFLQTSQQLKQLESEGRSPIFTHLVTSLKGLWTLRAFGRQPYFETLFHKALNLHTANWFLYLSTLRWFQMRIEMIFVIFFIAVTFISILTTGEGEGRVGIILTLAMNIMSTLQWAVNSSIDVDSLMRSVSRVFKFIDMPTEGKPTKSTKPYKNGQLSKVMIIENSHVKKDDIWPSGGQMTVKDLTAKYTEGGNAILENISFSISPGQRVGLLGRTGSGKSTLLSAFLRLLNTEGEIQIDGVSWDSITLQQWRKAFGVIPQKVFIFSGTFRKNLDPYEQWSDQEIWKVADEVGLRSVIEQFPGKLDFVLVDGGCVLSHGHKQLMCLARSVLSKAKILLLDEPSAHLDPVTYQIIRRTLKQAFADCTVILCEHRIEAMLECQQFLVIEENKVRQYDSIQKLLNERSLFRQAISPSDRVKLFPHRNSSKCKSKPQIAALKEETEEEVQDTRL

In the case of `Cc1cccc(C)c1-c1cc2nc(n1)NS(=O)(=O)c1cccc(c1)C(=O)N(Cc1cnc3oc(C4CC4)cc3n1)[C@H](CCC(C)C)CO2` [Compound I-130], the Emax in experiment [1] (18-24 hours) is more than 60%. Also, in experiment [1], the concentration giving a half-maximal response (EC50) (usually the concentration at which the effect is half-maximal) lay in the range of 3000 to 30000 nM.

Consider `Cc1cccc(CC(C)C)c1-c1nc2nc(c1C)OC[C@@H](CC(C)(C)C)N(Cc1cnc3cc(C(C)(C)C)n(C)c3n1)C(=O)c1cccc(c1)S(=O)(=O)N2` [Compound I-206, (5P,11R)-12-({6-tert-butyl-5-methyl-5H-pyrrolo[2,3-b]pyrazin-3-yl}methyl)-11-(2,2-dimethylpropyl)-7-methyl-6-[2-methyl-6-(2-methylpropyl)phenyl]-9-oxa-2λ^6-thia-3,5,12,19-tetraazatricyclo[12.3.1.1∧{4,8}]nonadeca-1(17),4(19),5,7,14(18),15-hexaene-2,2,13-trione], for which the “C Max activity (%)” value in experiment [2] (18-24 hours) was “+++ (+++ is >60%)”. Besides, the concentration for a half-maximal effect (EC50) in experiment [2] and in experiment [1] was less than 1000 nM in each case. Besides, the “B Max activity (%)” value in experiment [1] (18-24 hours) was “+++ (+++ is >60%)”.

On to `Cc1cccc(C)c1-c1cc2nc(n1)NS(=O)(=O)c1cccc(c1)C(=O)N(Cc1cnc3oc(C4CC4)cc3n1)[C@H](COC1CCCC1)CO2` [Compound I-118], for which the Emax in experiment [1] (18-24 hours) is more than 60%. Also, in experiment [1], the EC50 was in the range of 3000 to 30000 nM.

As to `Cc1cccc(CC(C)C)c1-c1nc2nc(c1C)OC[C@@H](CC(C)(C)C)N(Cc1cnc3oc(C(C)C)cc3n1)C(=O)c1cccc(c1)S(=O)(=O)N2` (atropisomer, axis not shown) [Compound I-65], the Emax in experiment [3] and in experiment [1] (18-24 hours) was more than 60% throughout. Besides, the EC50 in experiment [3] was less than 1000 nM; in experiment [1] it was 1000 to 3000 nM.

`COCCc1c(C(C)(C)C)n(C)c2nc(CN3C(=O)c4cccc(c4)S(=O)(=O)Nc4nc(c(OC)c(-c5c(C)cccc5CC(C)C)n4)OC[C@H]3CC(C)(C)C)cnc12` (atropisomer, axis not shown) [IV-94]: in experiment [2], the 50% effective concentration (EC50) is less than 1000 nM and the Emax is more than 60%. Further, in experiment [1], the EC50 was less than 1000 nM and the Emax is more than 60%.

Consider `Cc1cccc(C)c1-c1cc2nc(n1)NS(=O)(=O)c1cccc(c1)C(=O)N(Cc1cnc3nc(C4CC4)n(C)c3n1)[C@H](COC(C)C)CO2` [Compound I-139], for which the Emax in experiment [1] (18-24 hours) was more than 60%. The half-maximal effective concentration (EC50) in experiment [1] lay in the range of 3000 to 30000 nM.

`Cc1cccc(C)c1-c1cc2nc(n1)NS(=O)(=O)c1cccc(c1)C(=O)N(Cc1nc3cc(C(C)C)oc3cc1F)[C@H](CC13CC(C1)C3)CO2` [Compound I-89]: the Emax in experiment [3] and in experiment [1] (18-24 hours) was more than 60% each time. In addition, the 50% effective concentration (EC50) was less than 1000 nM in experiment [3] and 1000 to 3000 nM in experiment [1].

On to `Cc1cccc(CC(C)C)c1-c1nc2nc(c1C)OC[C@@H](CC(C)(C)C)N(Cc1cnc3cc(C(C)C)n(C)c3n1)C(=O)c1cccc(c1)S(=O)(=O)N2` (atropisomer, axis not shown) [Compound I-82], for which the Emax in experiment [3] and in experiment [1] (18-24 hours) was more than 60% in each case. In addition, the EC50 in experiment [3] and in experiment [1] was less than 1000 nM in each case.

For the compound `Cc1cccc(C)c1-c1nc2nc(c1C)OC[C@@H](CC(C)(C)C)N(Cc1cnc3nc(C(C)C)n(C)c3n1)C(=O)c1cccc(c1)S(=O)(=O)N2` [Compound I-167], in experiment [1] (18-24 hours), the Emax is more than 60%. Further, the EC50 in experiment [1] is less than 1000 nM.

As for `Cc1cccc(C)c1-c1cc2nc(n1)NS(=O)(=O)c1cccc(c1)C(=O)N(Cc1cnc3oc(C4CC4)cc3n1)[C@H](CC1CCC1)CO2` [Compound I-104, (11R)-11-(cyclobutylmethyl)-12-[(6-cyclopropylfuro[2,3-b]pyrazin-2-yl)methyl]-6-(2,6-dimethylphenyl)-2,2-dioxo-9-oxa-2λ^6-thia-3,5,12,19-tetrazatricyclo[12.3.1.14,8]nonadeca-1(18),4(19),5,7,14,16-hexaen-13-one], the Emax in experiment [3] and in experiment [1] (18-24 hours) was more than 60% in each case. Further, the half-maximal effective concentration (EC50) was less than 1000 nM in experiment [3] and 3000 to 30000 nM in experiment [1].

As to `Cc1cccc(C)c1-c1cc2nc(n1)NS(=O)(=O)c1cccc(c1)C(=O)N(Cc1cnc3oc(C(C)C)cc3n1)[C@H](CC1CCC1)CO2` [Compound I-56], the Emax in experiment [3] and in experiment [1] (18-24 hours) was more than 60% throughout. Also, the EC50 in experiment [3] is less than 1000 nM; in experiment [1], 1000 to 3000 nM.

For the compound `Cc1cccc(C)c1-c1nc2nc(c1C)OC[C@@H](COC(C)C)N(Cc1cnc3cc(C(C)(C)C)n(C)c3n1)C(=O)c1cccc(c1)S(=O)(=O)N2` [Compound I-182], the Emax in experiment [2] (18-24 hours) and in experiment [1] (18-24 hours) was more than 60% each time. Also, the concentration giving a half-maximal response (EC50) in experiment [2] and in experiment [1] was less than 1000 nM in each case. Further, the “D activity at 1 μM (%)” value in experiment [4] is given as “+++ (+++ is >60%)”.

Consider `Cc1cccc(C)c1-c1cc2nc(n1)NS(=O)(=O)c1cccc(c1)C(=O)N(Cc1cnc3oc(C4CC4)cc3n1)[C@H](CC1CC1)CO2` [Compound I-103], for which the Emax in experiment [3] and in experiment [1] (18-24 hours) was more than 60% in each case. For the same compound, the concentration for a half-maximal effect (EC50) was less than 1000 nM in experiment [3] and 1000 to 3000 nM in experiment [1].

Regarding `Cc1cccc(C)c1-c1cc2nc(n1)NS(=O)(=O)c1cccc(c1)C(=O)N(Cc1cnc3oc(C4CCC4)cc3n1)[C@H](COC(C)C)CO2` [Compound I-138], the Emax in experiment [1] (18-24 hours) was more than 60%. In addition, the EC50 in experiment [1] was in the range of 3000 to 30000 nM.

On to `Cc1cccc(CC(C)C)c1-c1nc2nc(c1C)OC[C@@H](CC13CC(C1)C3)N(Cc1cnc3cc(C(C)(C)C)n(C)c3n1)C(=O)c1cccc(c1)S(=O)(=O)N2` [IV-1], for which, in experiment [1], the EC50 is less than 1000 nM and the Emax is more than 60%.

Consider `Cc1cccc(C)c1-c1cc2nc(n1)NS(=O)(=O)c1cccc(c1)C(=O)N(Cc1cnc3cc(C4CC4)n(C)c3n1)[C@H](COC(C)C)CO2` [Compound I-151], for which the Emax in experiment [1] (18-24 hours) is more than 60%. Besides, the half-maximal effective concentration (EC50) in experiment [1] was in the range of 3000 to 30000 nM.

On to `Cc1cccc(C)c1-c1cc2nc(n1)NS(=O)(=O)c1cccc(c1)C(=O)N(Cc1cnc3oc(C4CC4)cc3n1)[C@H](CC1CCCC1)CO2` [Compound I-61], for which the Emax in experiment [1] (18-24 hours) is more than 60%. In addition, the EC50 in experiment [1] was 3000 to 30000 nM.

`Cc1cccc(C)c1-c1cc2nc(n1)NS(=O)(=O)c1cccc(c1)C(=O)N(Cc1nc3c(cc1F)cc(C(C)C)n3C)[C@@H](COC1CCC1)CO2` (stereo in doubt) [Compound I-84]: in experiment [3], the Emax was more than 60% and the concentration giving a half-maximal response (EC50) was less than 1000 nM.

As to `Cc1cccc(C)c1-c1cc2nc(n1)NS(=O)(=O)c1cccc(c1)C(=O)N(Cc1cnc3oc(C4CC4)cc3n1)[C@H](CC1CCCCC1)CO2` [Compound I-42], in experiment [3], the Emax is more than 60% and the EC50 was less than 1000 nM.
